The numbers were not newly measured in patent US10669284B2, “Fused thiazolopyrimidine derivatives as MNKS inhibitors” (LIFEARC, priority 2015, dated 2020), which cites them from elsewhere.

In data set [1] the test system is monocytic cell line THP-1. As to conditions: cited from earlier work.
Another data set deals with keratinocytes. The following applies: cited from earlier work.

SMILES strings stand for the structures.

For the molecule `Nc1ncnc2n[nH]c(Nc3ccc(F)cc3)c12` [CGP57380], in data set [1], the “block of release of IL-1β and IL-8 induced by Shiga toxin” value is on record as 73-96%. In the data set on keratinocytes, the TNF-production result is listed as “reduced TNF-production”; the “expression of IL-1β and IL-6” value was “decreased expression”.
